Read-outs that look alike come from different tables or passages of the source.
How the values were obtained:
[1] = molecular target: T1, human EGFR-LTC (Homo sapiens, UniProt P00533, C797S/L858R/T790M); experiment: EGFR protein abundance assay (Western blotting), EGFR-LTC; assay type: cell-based; settings: Ba/F3 cells expressing human EGFR-LTC, 24 h, Western blot
T1 construct: expressed in transfected cells
Protocol: (§1) Mouse Ba/F3 cells stably expressing human EGFR-DTC, EGFR-LTC, or EGFR-DC were transferred to Petri dishes with RPMI-1640 medium (Gibco, Product No. 11875093) containing 10% fetal bovine serum (FBS, Biological Industries, Product No. 04-001-1A) and 0.1% penicillin/streptomycin (P/S) and incubated in an aseptic incubator at 37° C., 95% relative humidity, and 5% CO2. Cells at the logarithmic growth phase were taken and seeded at a density of 50000 cells/well in 12-well plates (Corning, Product No. 3513) containing 1 mL of medium per well. After 24 h, the compounds disclosed herein with different concentrations were added to the wells at a final DMSO concentration of 0.1%. After 24 h, cells were lysed in SDS lysis buffer (1.45 g of SDS, 0.2 g of Tris base, 6 mL of glycerol, 20 mg of bromophenol blue, 310 mg DTT; brought to 40 mL with d2H2O), and the EGFR levels were detected and analyzed by Western Blotting (immunoblotting) using standard molecular biological techniques. Cell lysates were boiled at 95° C. for 8 min, mixed and centrifuged. The total cell proteins in the lysates were subjected to SDS-PAGE (GenScript, Product No. M00654), transferred to NC membranes (GE, Product No. 1060002) by blotting, incubated in a blocking buffer (TAKARA, Product No. T7131A) at room temperature for 60 min, and co-incubated overnight at 4° C. with the following primary antibodies: anti-EGFR (#4267S, 1:1000), anti-phoso-EGFR (#3777S, 1:1000), anti-GAPDH (#5174S, 1:10000), anti-Actin (#5125 S, 1:10000) (all purchased from Cell Signaling Technology). The samples were washed three times with TBST at room temperature, each for 10 min, and then incubated for 60 minutes in a blocking buffer containing a secondary antibody (#7074S, 1:10000, purchased from Cell Signaling Technology) at room temperature. The samples were washed three times with TBST at room temperature, each for 10 min. Chemiluminescent substrates were added, and an Azure c300 system was used for imaging.

[2] = system: human EGFR-DTC; experiment: EGFR protein abundance assay (Western blotting), EGFR-DTC; assay type: cell-based; settings: Ba/F3 cells expressing human EGFR-DTC, 24 h, Western blot
Protocol: as §1

[3] = system: LT; experiment: Cell proliferation IC50 assay (Cell Titer GLO), LT cells; assay type: cell-based; settings: Mus musculus; Table 7; LT cells (BaF3 with EGFR mutant), 72 h
Protocol: (§2) IC50 of compounds in the present invention was determined by Cell Titer GLO reagent from Promega. The procedures are as follows:
(§3) Tumor cells were cultured in specified medium in an incubator at 37° C. and 5% CO2. The cells were passaged periodically. Cells at the logarithmic growth phase were collected for plating at a density of 2000-4000 cells/well. The next day, the compounds of the present invention were serially diluted and added to the cells, with DMSO being the negative control and the culture media without cells being the blank control. The plate was incubated in the incubator for 72 h. The cell viability assay was performed by adding the detection reagents to the cell culture media according to Cell Titer GLO reagent instructions and detecting luminescent signals on an EnVision microplate reader (PerkinElmer).
(§4) Inhibition of cell growth by the compounds of the present invention was plotted by Prism Graphpad software for statistically calculating the IC50 of the compound of the present invention.

[4] = system: BaF3 patent; experiment: Cell proliferation IC50 assay (Cell Titer GLO), BaF3 parental cells; assay type: cell-based; settings: Mus musculus, Table 5, 10 ng/ml mIL3, 72 h
Protocol: as §2, §3, §4

[5] = system: DT; experiment: Cell proliferation IC50 assay (Cell Titer GLO), DT cells; assay type: cell-based; settings: Mus musculus; Table 7; DT cells (BaF3 with EGFR mutant), 72 h
Protocol: as §2, §3, §4

[6] = system: A431; experiment: Cell proliferation IC50 assay (Cell Titer GLO), A431 cells; assay type: cell-based; settings: Homo sapiens, A-431, A431, 72 h, read-out: A431 IC50
Summary of the method: (§5)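 Cells plated at 2000-4000 per well, next day given serially diluted compound, then grown 72 h at 37 °C, 5% CO2. Viability by CellTiter-Glo luminescence versus DMSO control; IC50 from growth-inhibition curves.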

[7] = system: BaF3 (EGFR Del19/T790M/C797S); experiment: Cell proliferation IC50 assay (Cell Titer GLO), BaF3 DTC cells; assay type: cell-based; settings: Mus musculus, Ba/F3 EGFR-Del19/T790M/C797S
Summary of the method: as §5

[8] = system: BaF3 (EGFR L858R/T790M/C797S); experiment: Cell proliferation IC50 assay (Cell Titer GLO), BaF3 LTC cells; assay type: cell-based; settings: Mus musculus, Ba/F3 EGFR
Summary of the method: as §5

[9] = system: BaF3 (EGFR WT); experiment: Cell proliferation IC50 assay (Cell Titer GLO), BaF3 WT cells; assay type: cell-based; settings: Mus musculus, Ba/F3 EGFR, 72 h
Summary of the method: as §5

[10] = molecular target: BaF3 (EGFR Del19) (Homo sapiens, UniProt P00533, cells depend on it, form not given); experiment: Cell proliferation IC50 assay (Cell Titer GLO), BaF3 D cells; assay type: cell-based, mouse; settings: Table 7, 72 h
Protocol: as §2, §3, §4

[11] = molecular target: BaF3 (EGFR L858R) (Homo sapiens, UniProt P00533, L858R, cells depend on it); experiment: Cell proliferation IC50 assay (Cell Titer GLO), BaF3 L cells; assay type: cell-based, mouse; settings: Table 7, 72 h
Chain of BaF3 (EGFR L858R) (P00533 whole entry L858R): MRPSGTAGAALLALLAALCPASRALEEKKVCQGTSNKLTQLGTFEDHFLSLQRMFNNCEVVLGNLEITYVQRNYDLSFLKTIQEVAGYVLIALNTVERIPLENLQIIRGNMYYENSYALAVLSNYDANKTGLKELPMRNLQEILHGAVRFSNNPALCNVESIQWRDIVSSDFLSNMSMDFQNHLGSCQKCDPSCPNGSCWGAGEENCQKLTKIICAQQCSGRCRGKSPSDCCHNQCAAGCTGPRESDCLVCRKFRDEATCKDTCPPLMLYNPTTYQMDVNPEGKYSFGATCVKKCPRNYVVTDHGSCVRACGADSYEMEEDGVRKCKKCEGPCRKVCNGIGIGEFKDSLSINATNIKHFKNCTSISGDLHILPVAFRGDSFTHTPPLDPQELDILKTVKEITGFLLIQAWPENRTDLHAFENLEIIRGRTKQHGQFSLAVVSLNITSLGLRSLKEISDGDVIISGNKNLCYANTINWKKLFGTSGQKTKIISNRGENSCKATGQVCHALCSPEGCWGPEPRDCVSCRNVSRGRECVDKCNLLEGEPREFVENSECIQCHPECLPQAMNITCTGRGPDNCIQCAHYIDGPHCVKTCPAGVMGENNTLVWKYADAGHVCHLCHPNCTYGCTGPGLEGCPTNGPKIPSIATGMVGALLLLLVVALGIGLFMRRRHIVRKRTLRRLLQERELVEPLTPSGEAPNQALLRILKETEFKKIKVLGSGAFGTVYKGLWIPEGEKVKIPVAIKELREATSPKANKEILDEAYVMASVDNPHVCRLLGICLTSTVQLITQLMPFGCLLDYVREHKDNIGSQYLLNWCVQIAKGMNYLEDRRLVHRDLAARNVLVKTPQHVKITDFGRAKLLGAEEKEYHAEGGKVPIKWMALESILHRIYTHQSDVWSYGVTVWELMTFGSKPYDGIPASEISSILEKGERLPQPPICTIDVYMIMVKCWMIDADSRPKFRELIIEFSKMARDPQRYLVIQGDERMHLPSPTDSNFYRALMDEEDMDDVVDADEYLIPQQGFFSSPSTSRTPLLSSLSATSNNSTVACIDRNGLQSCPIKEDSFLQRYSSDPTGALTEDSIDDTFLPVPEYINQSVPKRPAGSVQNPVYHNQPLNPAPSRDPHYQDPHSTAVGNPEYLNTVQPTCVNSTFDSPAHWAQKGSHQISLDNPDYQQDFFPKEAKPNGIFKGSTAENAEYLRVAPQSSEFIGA
Protocol: as §2, §3, §4

[12] = molecular target: T2, BaF3 (EGFR Del19/C797S) (Homo sapiens, UniProt P00533, C797S, cells depend on it, form not given); experiment: Cell proliferation IC50 assay (Cell Titer GLO), BaF3 DC cells; assay type: cell-based, mouse; settings: Table 7, 72 h
T2 construct: BaF3 (EGFR Del19/C797S)|DC|RPMI1640 + 10% FBS
T2 sequence (P00533 with tags, fused parts or gaps DEL746-750/C797S, form open): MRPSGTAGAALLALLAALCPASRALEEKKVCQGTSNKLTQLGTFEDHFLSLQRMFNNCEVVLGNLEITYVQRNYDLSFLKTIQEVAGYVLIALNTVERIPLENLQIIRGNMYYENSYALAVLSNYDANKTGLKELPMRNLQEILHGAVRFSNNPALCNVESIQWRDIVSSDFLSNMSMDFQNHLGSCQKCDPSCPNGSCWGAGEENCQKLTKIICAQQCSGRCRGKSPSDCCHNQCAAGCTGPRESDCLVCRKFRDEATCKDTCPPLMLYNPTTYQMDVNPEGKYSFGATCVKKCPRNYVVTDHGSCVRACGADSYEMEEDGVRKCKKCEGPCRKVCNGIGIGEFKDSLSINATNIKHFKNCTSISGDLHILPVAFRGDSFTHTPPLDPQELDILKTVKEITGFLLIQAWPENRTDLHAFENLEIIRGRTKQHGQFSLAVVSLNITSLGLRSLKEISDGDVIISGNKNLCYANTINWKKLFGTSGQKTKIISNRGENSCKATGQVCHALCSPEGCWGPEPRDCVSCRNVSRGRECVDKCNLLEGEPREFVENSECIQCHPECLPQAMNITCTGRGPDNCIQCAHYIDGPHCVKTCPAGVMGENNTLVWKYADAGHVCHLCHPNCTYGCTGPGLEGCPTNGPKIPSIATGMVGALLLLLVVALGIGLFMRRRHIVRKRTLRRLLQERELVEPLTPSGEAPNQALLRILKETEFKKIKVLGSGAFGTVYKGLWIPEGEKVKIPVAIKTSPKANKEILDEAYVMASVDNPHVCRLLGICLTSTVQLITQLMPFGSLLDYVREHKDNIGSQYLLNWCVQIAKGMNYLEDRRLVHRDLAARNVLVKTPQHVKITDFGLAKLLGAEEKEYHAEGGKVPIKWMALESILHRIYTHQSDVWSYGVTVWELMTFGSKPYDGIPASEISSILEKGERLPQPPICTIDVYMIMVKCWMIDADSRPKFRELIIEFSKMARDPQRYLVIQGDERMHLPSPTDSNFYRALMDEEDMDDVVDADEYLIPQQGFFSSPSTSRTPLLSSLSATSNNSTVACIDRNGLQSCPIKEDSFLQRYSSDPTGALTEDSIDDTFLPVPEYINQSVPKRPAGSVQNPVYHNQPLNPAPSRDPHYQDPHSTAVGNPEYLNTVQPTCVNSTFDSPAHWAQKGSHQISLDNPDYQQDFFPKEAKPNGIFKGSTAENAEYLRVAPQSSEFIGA
Summary of the method: as §5

[13] = molecular target: BaF3 (EGFR L858R/C797S) (Homo sapiens, UniProt P00533, C797S/L858R, cells depend on it); experiment: Cell proliferation IC50 assay (Cell Titer GLO), BaF3 LC cells; assay type: cell-based, mouse; settings: Table 7, 72 h
Chain of BaF3 (EGFR L858R/C797S) (P00533 whole entry C797S/L858R): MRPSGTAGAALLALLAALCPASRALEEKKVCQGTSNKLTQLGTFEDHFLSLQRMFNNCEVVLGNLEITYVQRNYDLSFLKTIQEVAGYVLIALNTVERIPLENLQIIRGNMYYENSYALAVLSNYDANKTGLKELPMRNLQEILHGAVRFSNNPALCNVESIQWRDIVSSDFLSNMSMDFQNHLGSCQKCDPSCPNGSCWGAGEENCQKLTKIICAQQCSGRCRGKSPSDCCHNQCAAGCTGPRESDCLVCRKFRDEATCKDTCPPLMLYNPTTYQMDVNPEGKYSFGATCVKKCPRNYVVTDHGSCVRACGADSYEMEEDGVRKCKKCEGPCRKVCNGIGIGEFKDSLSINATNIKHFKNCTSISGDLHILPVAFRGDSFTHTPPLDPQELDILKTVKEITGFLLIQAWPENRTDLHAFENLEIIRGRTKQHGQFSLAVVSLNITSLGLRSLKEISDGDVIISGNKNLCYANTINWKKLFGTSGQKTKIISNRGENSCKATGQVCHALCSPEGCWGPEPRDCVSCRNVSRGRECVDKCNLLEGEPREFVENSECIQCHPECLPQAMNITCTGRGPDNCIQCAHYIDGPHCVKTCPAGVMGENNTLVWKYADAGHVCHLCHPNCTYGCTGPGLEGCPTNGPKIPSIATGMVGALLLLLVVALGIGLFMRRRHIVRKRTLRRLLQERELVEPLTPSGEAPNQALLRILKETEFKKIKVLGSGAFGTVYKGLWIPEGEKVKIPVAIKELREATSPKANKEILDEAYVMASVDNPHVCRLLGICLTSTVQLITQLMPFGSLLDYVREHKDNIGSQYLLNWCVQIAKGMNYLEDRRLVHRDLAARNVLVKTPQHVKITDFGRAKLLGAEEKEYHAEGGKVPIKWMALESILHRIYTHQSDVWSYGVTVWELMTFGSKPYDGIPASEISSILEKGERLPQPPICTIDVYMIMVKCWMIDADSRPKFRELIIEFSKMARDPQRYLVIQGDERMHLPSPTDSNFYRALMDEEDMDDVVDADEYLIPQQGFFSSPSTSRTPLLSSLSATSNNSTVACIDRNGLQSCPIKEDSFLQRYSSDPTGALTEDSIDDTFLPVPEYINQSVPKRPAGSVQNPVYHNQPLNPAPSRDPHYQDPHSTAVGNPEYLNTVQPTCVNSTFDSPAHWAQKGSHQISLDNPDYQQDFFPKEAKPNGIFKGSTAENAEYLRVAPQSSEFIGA
Protocol: as §2, §3, §4

T1 sequence (P00533 25-1210 T790M/C797S/L858R): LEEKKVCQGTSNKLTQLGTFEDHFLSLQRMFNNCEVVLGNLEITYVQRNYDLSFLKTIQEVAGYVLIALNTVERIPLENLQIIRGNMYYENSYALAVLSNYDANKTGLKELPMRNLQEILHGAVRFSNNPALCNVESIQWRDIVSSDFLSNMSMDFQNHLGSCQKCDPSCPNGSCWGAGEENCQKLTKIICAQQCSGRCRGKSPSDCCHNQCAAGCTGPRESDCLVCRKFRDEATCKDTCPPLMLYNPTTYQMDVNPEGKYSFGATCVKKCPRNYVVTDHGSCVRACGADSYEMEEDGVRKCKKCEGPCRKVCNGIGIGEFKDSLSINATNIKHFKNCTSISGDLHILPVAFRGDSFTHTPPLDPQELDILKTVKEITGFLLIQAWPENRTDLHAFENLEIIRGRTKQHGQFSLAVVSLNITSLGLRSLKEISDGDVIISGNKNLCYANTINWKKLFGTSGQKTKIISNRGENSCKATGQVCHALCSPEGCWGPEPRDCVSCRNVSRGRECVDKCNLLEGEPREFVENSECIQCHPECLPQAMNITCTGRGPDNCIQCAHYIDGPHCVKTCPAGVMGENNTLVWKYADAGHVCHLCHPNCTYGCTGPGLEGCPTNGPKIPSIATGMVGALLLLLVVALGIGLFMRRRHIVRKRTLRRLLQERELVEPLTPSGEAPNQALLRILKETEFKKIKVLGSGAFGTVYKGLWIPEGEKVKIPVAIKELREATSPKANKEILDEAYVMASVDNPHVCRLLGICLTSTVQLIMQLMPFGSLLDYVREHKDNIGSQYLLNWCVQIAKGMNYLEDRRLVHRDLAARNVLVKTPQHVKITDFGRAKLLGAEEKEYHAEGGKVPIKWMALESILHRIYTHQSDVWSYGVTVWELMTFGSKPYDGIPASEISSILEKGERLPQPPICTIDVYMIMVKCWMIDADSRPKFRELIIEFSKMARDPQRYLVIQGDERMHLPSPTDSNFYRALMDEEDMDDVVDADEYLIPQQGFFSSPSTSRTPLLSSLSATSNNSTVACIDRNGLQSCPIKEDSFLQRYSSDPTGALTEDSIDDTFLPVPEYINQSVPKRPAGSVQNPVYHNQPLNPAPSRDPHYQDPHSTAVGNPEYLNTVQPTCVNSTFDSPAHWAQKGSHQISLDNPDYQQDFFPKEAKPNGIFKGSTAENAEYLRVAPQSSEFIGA

IC50 ([6]; Table 5) [nM] | IC50 ([7]; Table 5, 72 h) [nM] | IC50 ([8]; Table 5, 72 h) [nM] | IC50 ([9]; Table 5, 10 ng/ml EGF) [nM] | Compound | IC50 [4] [nM] | further results
– | – | – | – | CCc1cc(Nc2ncc(Cl)c(Nc3ccccc3P(C)(C)=O)n2)c(OC)cc1N1CCC(N2CCN(CCC#Cc3cccc4c3CN(C3CCC(=O)NC3=O)C4=O)CC2)CC1 (single isomer, unassigned) [Example E5] | – | DC50 [1]: < 1 nM; EGFR-LTC Dmax [1]: 93%; DC50 [2]: 9.31 nM; EGFR-DTC Dmax [2]: 86%
– | – | – | – | CCc1cc(Nc2ncc(Cl)c(Nc3ccccc3P(C)(C)=O)n2)c(OC)cc1N1CCC(N2CCN(CCC#Cc3cccc4c3CN(C3CCC(=O)NC3=O)C4=O)CC2)CC1 (single isomer, unassigned) [Example E6] | – | DC50 [1]: 10.1 nM; EGFR-LTC Dmax [1]: 89%; DC50 [2]: 3.37 nM; EGFR-DTC Dmax [2]: 70%
– | – | – | – | COc1cc(N2CCC(N3CCN(CCC#Cc4cccc5c4CN(C4CCC(=O)NC4=O)C5=O)CC3)CC2)ccc1Nc1ncc(Cl)c(Nc2ccccc2P(C)(C)=O)n1 (stereo not drawn) [Example C-2, reference compound] | 73.8 | IC50 [3]: 20.9 nM; IC50 [5]: 13.3 nM
> 4000 | 17.1 | 61.3 | 236 | COc1cc(N2CCC3(CCN(CCCC#Cc4cccc5c4CN(C4CCC(=O)NC4=O)C5=O)CC3)CC2)c(Cl)cc1Nc1ncc(Cl)c(Nc2ccccc2P(C)(C)=O)n1 (stereo not drawn) [Example E11] | 147 | –
377 | 7.8 | 55.2 | 69 | CN(CCCC#Cc1cccc2c1CN(C1CCC(=O)NC1=O)C2=O)C1CC2(CCN(c3ccc(Nc4ncc(Cl)c(Nc5ccccc5P(C)(C)=O)n4)cc3Cl)CC2)C1 (stereo not drawn) [Example E14] | 84.2 | –
> 4000 | 55.6 | 348 | > 4000 | CCc1cc(Nc2ncc(Cl)c(Nc3ccccc3P(C)(C)=O)n2)c(OC)cc1N1CCC2(CCN(CCCC#Cc3ccc4c(c3)CN(C3CCC(=O)NC3=O)C4=O)CC2)CC1 (stereo not drawn) [Example E16] | > 4000 | –
283 | 3.7 | 15.5 | 25.1 | CP(C)(=O)c1ccccc1Nc1nc(Nc2ccc(N3CCC(N4CCN(CCC#Cc5cccc6c5CN(C5CCC(=O)NC5=O)C6=O)CC4)CC3)c(Cl)c2)ncc1Cl (stereo not drawn) [Example E17] | 23.4 | –
2180 | 30.9 | 266 | 724 | CP(C)(=O)c1ccccc1Nc1nc(Nc2ccc(N3CCC4(CCN(CCCC#Cc5cccc6c5CN(C5CCC(=O)NC5=O)C6=O)CC4)CC3)c(Cl)c2)ncc1Cl (stereo not drawn) [Example E18] | 786 | –
1070 | 8.9 | 61.1 | > 4000 | CCc1cc(Nc2ncc(Cl)c(Nc3ccccc3P(C)(C)=O)n2)c(OC)cc1N1CCC(N2CCN(CCCCCc3cc4c(cc3F)C(=O)N(C3CCC(=O)NC3=O)C4)CC2)CC1 (stereo not drawn) [Example E19] | > 4000 | –
1010 | 1.9 | 16.8 | 636 | CCc1cc(Nc2ncc(Cl)c(Nc3ccccc3P(C)(C)=O)n2)c(OC)cc1N1CCC(N2CCC3(CCC(Oc4cccc5c4CN(C4CCC(=O)NC4=O)C5=O)CC3)C2)CC1 (stereo not drawn) [Example E21] | 410 | –
> 4000 | 9.4 | 106 | > 4000 | CCc1cc(Nc2ncc(Cl)c(Nc3ccccc3P(C)(C)=O)n2)c(OC)cc1N1CCC2(CCN(CCCCC#Cc3cccc4c3CN(C3CCC(=O)NC3=O)C4=O)CC2)CC1 (stereo not drawn) [Example E23] | > 4000 | –
1460 | 35.4 | 70.6 | 1550 | CCc1cc(Nc2ncc(Cl)c(Nc3ccccc3P(C)(C)=O)n2)c(OC)cc1N1CCC(N2CCN(CCC#Cc3ccc4c(c3)CN(C3CCC(=O)NC3=O)C4=O)CC2)CC1 (stereo not drawn) [Example E24] | 1260 | –
1260 | 13.7 | 57.2 | 1370 | CCc1cc(Nc2ncc(Cl)c(Nc3ccccc3P(C)(C)=O)n2)c(OC)cc1N1CCC(N2CCN(CC#Cc3cccc4c3CN(C3CCC(=O)NC3=O)C4=O)CC2)CC1 (stereo not drawn) [Example E25] | 1210 | –
1090 | 8 | 53.5 | 517 | CCc1cc(Nc2ncc(Cl)c(Nc3ccccc3P(C)(C)=O)n2)c(OC)cc1N1CCC(N2CCN(CCCc3cccc4c3CN(C3CCC(=O)NC3=O)C4=O)CC2)CC1 (stereo not drawn) [Example E26] | 546 | –
1190 | 3.3 | 29.8 | 937 | COc1cc(N2CCC(N3CCC4(CCC(Oc5cccc6c5CN(C5CCC(=O)NC5=O)C6=O)CC4)C3)CC2)c(C2CC2)cc1Nc1ncc(Cl)c(Nc2ccccc2P(C)(C)=O)n1 (stereo not drawn) [Example E27] | 375 | –
1390 | 11.2 | 57.9 | 955 | CCc1cc(Nc2ncc(Br)c(Nc3ccc4c(c3P(C)(C)=O)OCCO4)n2)c(OC)cc1N1CCC2(CCN(CCCC#Cc3cccc4c3CN(C3CCC(=O)NC3=O)C4=O)CC2)CC1 (stereo not drawn) [Example E28] | 695 | –
1020 | 14 | 20.9 | 1000 | CCc1cc(Nc2ncc(Cl)c(Nc3ccccc3P(C)(C)=O)n2)c(OC)cc1N1CCC(N2CC3(CCC(Oc4cccc5c4CN(C4CCC(=O)NC4=O)C5=O)CC3)C2)CC1 (stereo not drawn) [Example E29] | 1370 | –
1020 | 1.6 | 11.9 | 636 | CCc1cc(Nc2ncc(Cl)c(Nc3ccccc3P(C)(C)=O)n2)c(OC)cc1N1CCC(N2CCN(CCCCOc3cccc4c3CN(C3CCC(=O)NC3=O)C4=O)CC2)CC1 (stereo not drawn) [Example E30] | 410 | –
– | – | – | – | CCc1cc(Nc2ncc(-c3cnn(C)c3)c(Nc3ccccc3P(C)(C)=O)n2)c(OC)cc1N1CCC(N2CCN(CCOc3cccc4c3CN(C3CCC(=O)NC3=O)C4=O)CC2)CC1 (stereo not drawn) [Example E158] | – | IC50 [3]: 69.1 nM; IC50 ([6]; Table 6): ≥ 1200 nM; GI50 [10]: 0.2 nM; GI50 [11]: 0.6 nM; IC50 [12]: 0.1 nM; IC50 ([7]; Table 6, 72 h): 33 nM; GI50 [13]: 1.3 nM; IC50 ([8]; Table 6, 72 h): 2760 nM; IC50 ([9]; Table 6, 10 ng/ml EGF): 730 nM; IC50 [5]: 15.3 nM

Reference: patent US20240408216A1, “PROTEIN INHIBITOR OR DEGRADING AGENT, PHARMACEUTICAL COMPOSITION CONTAINING SAME AND PHARMACEUTICAL USE” (JING MEDICINE TECHNOLOGY (SHANGHAI) LTD., priority 2021, published 2024)
